The source of these data is PMC12627862, “Therapeutic targeting of endothelial calcium signaling accelerates the resolution of lung injury” (Signal Transduction and Targeted Therapy, 2025).

Starred links: 1 amine or outer side, 2 acyl side, 3 side chain; linkers in the order of their positions; H or OH if unused. Non-standard residues stand in square brackets, D forms with d. Residues, ends and D or L forms follow the SMILES beside them. ξ: configuration not given here. Oic = O=C(O)[C@@H]1C[C@@H]2CCCC[C@@H]2N1; GABOB(3R) = O=C(C[C@@H](O)CN[*:1])[*:2]; tBuAla = CC(C)(C)C[C@H](N)C(=O)O; ξVal(3-OH) = CC(C)(O)C(N)C(=O)O; 4Amb = NCc1ccc(C(=O)O)cc1

Experiment [1] concerns splenocytes from CD1 mice. Put plainly: Cytokine release by immune cells in vitro. It is filed as cell-based, mouse. Particulars: 2 µg/mL LPS for 2 hours, VT-109 200 nM and 1 µM. As to the method:
VT-109’s effect on cytokine release by immune cells in vitro. Freshly isolated splenocytes from CD1 mice were treated with 2 µg/mL LPS for 2 hours. Two different concentrations of VT-109 (200 nM and 1 µM) were tested, and the cells were treated concurrently with LPS. Untreated splenocytes served as the control. After the 2-hour incubation, MCP-1, TNF-α, KC, and IL-6 levels were measured in the growth media using mouse multiplexed ELISA array. Data are expressed as pg/mL.

The subject of another experiment is Pseudomonas aeruginosa. Put plainly: I.t. P. aeruginosa-induced pneumonia. It is filed as in vivo, mouse. The source says:
Most ARDS cases arise secondary to pneumonia, in which infectious agents directly target the alveolar epithelium. Damage to these epithelial cells disrupts the integrity of the alveolar–capillary barrier, leading to protein-rich pulmonary edema and widespread inflammation, two hallmark features of diffuse alveolar damage. Because endothelial barrier disruption is a downstream consequence in this context, we also evaluated the benefits of VT-109 treatment in a model of Pseudomonas aeruginosa–induced lung injury, the most commonly acquired hospital-associated pneumonia. Mice were infected with a sublethal intratracheal dose of 5 × 10^5 CFU Pseudomonas aeruginosa and treated with a moderately efficacious dose of VT-109 (250 nmol/kg bw) at 5 hours post-challenge. The lung tissues were collected at 24 and 48 hours for histopathological analysis of acute lung injury, neutrophil influx, and bacterial counts in BALF (Fig. 5k–n and Supplementary Fig. 4j).
Mice (CD1) were anesthetized by intraperitoneal injection of xylazine and positioned supine on a sterile surgical surface. A small midline incision was made in the neck to expose the trachea. GFP-expressing Pseudomonas aeruginosa (PA) was cultured overnight in LB broth supplemented with carbenicillin (100 µg/mL). A total volume of 30 µL PBS containing 0.5 × 10⁶ colony-forming units (CFU) was injected directly into the trachea using a sterile 28G insulin syringe. Following intratracheal instillation, mice received VT-109 (250 nmol/kg body weight) or vehicle by IV at 5- and 24-hours post-infection. Lung tissues were collected at 24 and 48 hours to assess treatment effects. The left lung was inflated with fixative and harvested for histological analysis, while the right lung was collected for bacterial quantification. For CFU analysis, the right lung was homogenized in 1 mL of sterile PBS using a bead-based tissue homogenizer. Homogenates were serially diluted and plated on LB agar containing carbenicillin (100 µg/mL). Plates were incubated overnight at 37 °C, and CFUs were counted the following day. […]

The test system of experiment [2] is CD1 mice challenged with LPS. Put plainly: Endotoxemia model, sublethal LPS in oil-preloaded mice. As to conditions: LPS 4 mg/kg i.p. Format: in vivo, mouse. The source says:
Considering the diverse etiological factors contributing to the pathogenesis of ARDS[29], we first assessed the therapeutic benefits of VT-109 in treating pulmonary vascular leakage in a murine model of endotoxemia-induced hyperinflammatory ARDS[30]. We induce a systemic inflammatory response by administering lipopolysaccharide (LPS), an endotoxin of the outer membrane of gram-negative bacteria, which elicits strong immune responses in animals, causing endothelial barrier breakdown and associated pulmonary edema, lung injury, morbidity, and mortality.
Using this model, we implemented two different i.v. treatment protocols with VT-109 (Fig. 3a, b). In cohort 1, mice received three daily doses of 1 µmol/kg bw VT-109 starting 24 hours after LPS challenge at the onset of lung injury. […] Cohort 3 mice received vehicle daily starting at 24 hours of LPS challenge. […] This inhibitory effect of VT-109 on neutrophil recruitment, a hallmark of lung inflammation and poor clinical prognosis, was consistent with our previous work[3]. Overall, our findings indicate that treating pulmonary vascular leakage reduces lung inflammation, in part, by restricting neutrophil transmigration through the endothelial barrier. […]
Evans’ blue-labeled albumin extravasation. […] The optical density of the supernatant was measured spectrophotometrically at 620 nm (Evans Blue) and 740 nm (hemoglobin correction), with the dye content normalized to the wet weight of the lungs. Corrections for hemoglobin were made as follows: Corrected absorbance (Evans blue) = Absorbance (620) - (1.426 × Absorbance (740) + 0.03). […]
Myeloperoxidase (MPO) measurements. […] MPO levels in the samples were determined using the o-dianisidine-H₂O₂ technique following enzyme extraction with hexadecyl-trimethylammonium bromide (HTAB). The absorbance change was measured at […] over a 3-minute period, and the data were expressed as ΔOD460/min/g lung tissue.

Regarding `CC(C)(C)C[C@@H]1NC(=O)C[C@@H](O)CNC(=O)[C@@H]2C[C@@H]3CCCC[C@@H]3N2C(=O)[C@H](CC(C)(C)C)NC(=O)c2ccc(cc2)CNC(=O)C(C(C)(C)O)NC(=O)[C@@H](Cc2ccccc2)NC1=O` (stereo partly drawn) [compound 109, (1^2S,1^3aS,1^7aS,3S,10S,13R,16S,20R)-13-benzyl-20-hydroxy-10-(2-hydroxypropan-2-yl)-3,16-dineopentyl-1^2,1^3,1^3a,1^4,1^5,1^6,1^7,1^7a-octahydro-1^1H-4,8,11,14,17,22-hexaaza-1(1,2)-indola-6(1,4)-benzenacyclotricosaphane-2,5,9,12,15,18,23-heptaone.] (cyclo([4Amb][tBuAla][Oic][GABOB(3R)][tBuAla][dF][ξVal(3-OH)])), the “cytokine production by immune cells in vitro (MCP-1, TNFα, KC, IL-6)” value in experiment [1] was “nor did it directly alter cytokine production”. Further, the “neutrophils in the lung tissues” value in the experiment on Pseudomonas aeruginosa (5 × 10^5 CFU i.t., 250 nmol/kg bw at 5 hours post-challenge, 24 and 48 hours) is on record as “far fewer neutrophils”. Besides, in the experiment on Pseudomonas aeruginosa (5 × 10^5 CFU i.t., 250 nmol/kg bw, 24 and 48 hours), the “lung injury (histopathology)” value was “appeared uninjured”. In the experiment with Pseudomonas aeruginosa (both time points, did not reach statistical significance), the bacterial counts entry was “modest reduction”. The results for the “pulmonary edema (EBA extravasation)” value in experiment [2] (cohort 1: three daily i.v. doses of 1 µmol/kg bw starting 24 hours after LPS) and in experiment [2] (cohort 2: two daily i.v. doses of 1 µmol/kg bw starting 72 hours after LPS) were “promptly blocked the development of pulmonary edema” and “accelerated the resolution of pulmonary edema”, respectively. Also, the “myeloperoxidase (MPO) in the lung tissue” value in experiment [2] (regardless of the treatment initiation time) was “consistently lowered”.
